Results: patent US20030228281A1, “Use of mutant herpes viruses and anticancer agents in the treatment of cancer” (priority 2000, published 2003)
“Also recorded” adds a separate entry of the source.

How the values were obtained:
ribonucleotide reductase = target: T1, ribonucleotide reductase (Homo sapiens, UniProt P23921); experiment: CDP reductase assay on HCT8 cell extracts incubated with FdUMP; type: biochemical
T1 construct: 50 mM HEPES (pH 7.2), and 100 μl extract (0.2-0.7 mg protein); endogenous in cells
T1 sequence (P23921 1-792): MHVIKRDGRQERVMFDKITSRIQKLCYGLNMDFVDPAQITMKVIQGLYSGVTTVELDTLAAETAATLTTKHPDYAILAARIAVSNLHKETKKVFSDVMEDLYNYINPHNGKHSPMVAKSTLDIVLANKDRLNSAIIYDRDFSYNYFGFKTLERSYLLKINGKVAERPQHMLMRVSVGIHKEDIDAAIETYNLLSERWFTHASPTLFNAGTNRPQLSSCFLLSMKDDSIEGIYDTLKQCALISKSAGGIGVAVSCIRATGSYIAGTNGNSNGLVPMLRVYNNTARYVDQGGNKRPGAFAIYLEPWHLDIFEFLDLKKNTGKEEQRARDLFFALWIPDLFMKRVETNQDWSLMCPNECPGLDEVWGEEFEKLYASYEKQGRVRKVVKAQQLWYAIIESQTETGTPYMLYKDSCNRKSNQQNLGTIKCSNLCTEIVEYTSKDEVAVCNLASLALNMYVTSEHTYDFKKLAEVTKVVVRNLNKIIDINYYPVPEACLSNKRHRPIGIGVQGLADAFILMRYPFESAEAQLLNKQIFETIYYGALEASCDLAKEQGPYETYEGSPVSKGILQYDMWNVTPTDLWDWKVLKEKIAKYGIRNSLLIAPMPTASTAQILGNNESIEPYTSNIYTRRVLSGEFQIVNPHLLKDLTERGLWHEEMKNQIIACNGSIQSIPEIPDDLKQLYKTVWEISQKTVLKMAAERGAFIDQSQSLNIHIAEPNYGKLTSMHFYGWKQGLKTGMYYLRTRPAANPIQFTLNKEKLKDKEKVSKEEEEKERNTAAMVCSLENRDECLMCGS
Protocol: Cells grown in 250 cm^2-flasks were trypsinized and washed twice in ice-cold PBS. Cells were centrifuged at 300×g for 5 min at 4° C. and resuspended in 3 volumes of Low Salt Extraction Buffer (10 mM HEPES, pH 7.2, 2 mM DTT). Viable cell count of the resuspension was determined by trypan blue exclusion. After 30 min incubation on ice, the cell suspension was drawn 10× through a 28G½ needle. The crude homogenate was centrifuged at 100,000×g for 60 min at 4° C. to remove cellular debris. The supernatant fraction was dialyzed against 1,000 volumes of the Low Salt Extraction Buffer for 4 hours with one buffer change after 2 hours using dialysis cassettes with a molecular weight cut-off of 10,000 (Slide-A-Lyzer Dialysis Cassettes, Pierce, Rockford, Ill.). The dialyzed extract was snap-frozen in liquid nitrogen and stored at −80° C. until analysis. All extraction procedures were performed at 4° C.
Activity of ribonucleotide reductase was determined by a modified method of Steeper and Stuart (Steeper et al., Anal. Biochem. 34:123-130, 1970). Conversion of CDP to dCDP was monitored using [^14C]CDP (53 mCi/mmol, Movarek Biochemicals, Inc.) as substrate and rattlesnake venom from Crotalus adamanteus (Sigma) to hydrolyze nucleotides to nucleosides. The reaction mixture contained the following concentrations of ingredients in a final volume of 150 μl: 40 μM CDP, 10 μM [^14C]CDP (0.08 μCi), 6 mM DTT, 4 mM magnesium acetate, 2 mM ATP, 50 mM HEPES (pH 7.2), and 100 μl extract (0.2-0.7 mg protein). The enzyme reaction was carried out for 30 min at 37° C. and stopped by incubation at 100° C. for 4 min. Nucleotides were hydrolyzed by adding 50 μl carrier dCMP (6 mM dCMP, 2 mM MgCl2, 6 mM Tris-HCl, pH 8.8) and 25 μl snake venom suspension (50 mg/ml). After 3 hours incubation at 37° C., the reaction mixture was heat-inactivated by boiling for 4 min. Heat-precipitated material was removed by centrifugation at 14,000×g for 10 min at room temperature. [^14C]deoxycytosine was separated from [^14C]cytosine by covalent chromatography using phenylboronic acid-columns (BondElut PBA, Varian, Harbor City, Calif.). Triethenolamine Buffer (pH 10) was added to the supernatant fraction to a final concentration of 0.4 M and 1 ml of this mixture was applied to the column. Fractions were collected and measured for radioactivity by liquid scintillation spectrometry (LS 60001C Liquid Scintillation System, Beckman Instruments, Inc., Fullerton, Calif.). One unit of enzyme activity was defined as conversion of 1 nmol CDP to the product dCDP in 1 hour at 37° C.

OCUM-2MD3 cells = experiment: MTT cytotoxicity with Chou-Talalay combination analysis; type: cell-based, human
Protocol: (§1) Cytotoxicity assays were performed by plating 1×10^4 cells/well into 96 well assay plates (Costar, Corning Inc., Corning, N.Y.). […] These ratios were determined by estimating the ED50 for each drug in initial experiments and by using these doses to determine the ratio of combination therapy. Percent cell survival for each group (vs. controls) was calculated 5d after treatment using a standard MTT (3-(4,5-dimethylthiazol-2-yl)-2,5-diphenyl-2H tetrazolium bromide) bioassay. A micro-plate reader was used to evaluate for the presence of the MTT-formazan product at 550 nm. Background optical density (OD) was subtracted from the OD readings of all samples. Cell viability was then calculated by dividing the mean absorbance (OD)(n=6) of the treated wells by the mean absorbance (OD)(n=6) of the untreated (control) wells.
(§2) This method defines the expected additive effect of two agents and then quantifies synergism or antagonism by determining how much the combination effect differs from the expected additive effect. The equations and computer software used for data analysis have been described in detail elsewhere (Chou, T., editors. Academic Press, New York. 61-102, 1991; Chou et al., Advances in Enzyme Regulation 22:27-55, 1984; Chou et al., Manual and Software for IBM-PC 1987; Chou, J., Academic Press, New York 223-244, 1991). The combination index equation is used to precisely analyze two-drug combinations. Interpretation of CI values are defined such that a CI=1 indicates an additive effect, while a CI<1 and a CI>1 indicate synergism and antagonism, respectively. Cytotoxicity data obtained from the experiments described above were used in the Chou-Talalay analysis. […] Based on the actual experimental data, computer software was used to calculate serial CI values over an entire range of effect levels (Fa) from 5-95%. […] Data were also analyzed by the isobologram technique, which is dose-oriented. The axes on an isobologram represent the doses of each drug. For any given Fa value, two points on the x and y axes are chosen that correspond to the doses of each drug necessary to generate that given Fa value. The straight line drawn between these two points corresponds to the possible combination doses that would be required to generate the same Fa value, assuming that the interaction between the two drugs is strictly additive. The observed experimental concentrations actually required to achieve a given Fa value are then added to the plot. If these points lie on the straight line then the effect is additive at that Fa value. If the point lies to the left of the straight line then the effect is synergistic, and if the point lies to the right of the straight line then the effect is antagonistic at that Fa value. Another calculation available using the combination index method is the dose-reduction index (DRI). The DRI is a determination of the fold-dose reduction allowed for each drug when given in synergistic combination, as compared to the concentration of single agent therapy needed to achieve the same effect level. A DRI>1 signifies a favorable reduction in toxicity while still maintaining therapeutic efficacy.

MKN-45-P cells = experiment: as above; type: cell-based, human
Protocol: as §1, §2

[1] = tested on: OCUM-2MD3 peritoneal tumor; experiment: Murine xenograft model of gastric carcinomatosis, intraperitoneal treatment; type: in vivo, athymic nude mice; details: 0.1 mg/kg MMC i.p., 4 weeks
Description: An established murine xenograft model of gastric carcinomatosis was used as previously described (Bennett et al., Journal of Molecular Medicine 78:166-174, 2000; Yashiro et al., Clin. Exp. Metastasis 14:43-54, 1996). Intraperitoneal (i.p.) injection of 2×10^6 OCUM-2MD3 cells reliably develops disseminated peritoneal tumor that seeds the omentum, small and large bowel mesentery, diaphragm, gonadal fat and hepatic hilum. Macroscopic nodules are present within three days after injection, and the development of overwhelming tumor burden, bloody ascites and cachexia occurs by four weeks post-injection. To assess tumor burden, animals were eviscerated at sacrifice and peritoneal tumor was stripped from associated abdominal organs as previously described. Tumor burden was then assessed by weight.
Animals were all injected i.p. with 2×10^6 OCUM-2MD3 cells and treated 3d later. […] Animals were sacrificed 4 weeks later and tumor burden was assessed as described (Bennett et al., Journal of Molecular Medicine 78:166-174, 2000).

GADD34 mRNA (OCUM cells) = experiment: Northern hybridization for GADD34 in cells treated with MMC; type: cell-based, human; details: for Increase in GADD34 band intensity vs negative control: high dose MMC 0.04 μg/cc; for GADD34 band: low dose MMC 0.005 μg/cc
Protocol: Cells were cultured with 12 cc culture media containing 0 μg/ml (untreated), 0.005 μg/ml (low dose), or 0.04 μg/ml (high dose) of Mitomycin-C (Bristol Laboratories, Princeton, N.J.). Cells were harvested by trypsinization at 24 and 48 hours. Total RNA was prepared using a total RNA isolation system (Promega, Madison, Wis.) and RNA content was measured by optical density at 260 nm. 7 μg of RNA per sample was loaded in a denaturing 1.2% agarose gel. Electrophoretic separation, RNA transfer to a nitrocellulose membrane (Intergen, Purchase, N.Y.), hybridization (50% formamide at 40° C.), and autoradiographic identification were done by standard techniques. The cDNA clone GADD34 containing a 2.4 kb insert was provided by Dr. A. Fomace, Jr, and the cDNA clone a-actin containing a 1.1 kb insert was acquired from ATCC (Manassas, Va.)(Hollander et al., J. Biol. Chem. 272:13731-13737, 1997). cDNA that had been excised from plasmid vectors was labelled with [^32P]dCTP by the random-primer labelling method (Stratagene, La Jolla, Calif.).

O=c1[nH]c(=O)n([C@H]2C[C@H](O)[C@@H](COP(=O)(O)O)O2)cc1F [FdUMP, 2′-deoxy-5-fluorouridine 5′ monophosphate]
Activity (ribonucleotide reductase; 0.001 mM FdUMP): 77.0%
RR activity (ribonucleotide reductase; 0.001 mM FdUMP): 0.47 ± 0.02 nmol dCDP / h
inhibition at 1 µM (ribonucleotide reductase; 0.001 mM FdUMP): 23%
Activity (ribonucleotide reductase; 0.01 mM FdUMP): 73.8%
RR activity (ribonucleotide reductase; 0.01 mM FdUMP): 0.45 ± 0.02 nmol dCDP / h
inhibition at 10 µM (ribonucleotide reductase; 0.01 mM FdUMP): 26.2%
Activity (ribonucleotide reductase; 0.1 mM FdUMP): 70.5%
RR activity (ribonucleotide reductase; 0.1 mM FdUMP): 0.43 ± 0.03 nmol dCDP / h
inhibition at 100 µM (ribonucleotide reductase; 0.1 mM FdUMP): 29.5%
Activity (ribonucleotide reductase; 1 mM FdUMP): 39.3%
RR activity (ribonucleotide reductase; 1 mM FdUMP): 0.24 ± 0.02 nmol dCDP / h
RR inhibition in words (ribonucleotide reductase; 1 mM FdUMP): Substantial enzyme inhibition
inhibition at 1000 µM (ribonucleotide reductase; 1 mM FdUMP): 60.7%
RR activity remaining (ribonucleotide reductase; 0.001 to 0.1 mM FdUMP): 80 to 70%
Activity (ribonucleotide reductase; 10 mM FdUMP): 22.9%
RR activity (ribonucleotide reductase; 10 mM FdUMP): 0.14 ± 0.01 nmol dCDP / h
inhibition at 10000 µM (ribonucleotide reductase; 10 mM FdUMP): 77.1%

CO[C@@]12[C@H](COC(N)=O)C3=C(C(=O)C(C)=C(N)C3=O)N1C[C@@H]1N[C@@H]12 [MMC, Mitomycin C]
MMC alone, dose needed to kill fraction affected (OCUM-2MD3 cells; Fa 10%): 0.009 ug/cc
MMC alone, dose needed to kill fraction affected (OCUM-2MD3 cells; Fa 20%): 0.014 ug/cc
MMC alone, dose needed to kill fraction affected (OCUM-2MD3 cells; Fa 30%): 0.017 ug/cc
MMC alone, dose needed to kill fraction affected (OCUM-2MD3 cells; Fa 40%): 0.021 ug/cc
MMC alone, dose needed to kill fraction affected (OCUM-2MD3 cells; Fa 50%): 0.026 ug/cc
MMC alone, dose needed to kill fraction affected (OCUM-2MD3 cells; Fa 60%): 0.031 ug/cc
MMC alone, dose needed to kill fraction affected (OCUM-2MD3 cells; Fa 70%): 0.038 ug/cc
MMC alone, dose needed to kill fraction affected (OCUM-2MD3 cells; Fa 80%): 0.048 ug/cc
MMC alone, dose needed to kill fraction affected (OCUM-2MD3 cells; Fa 90%): 0.070 ug/cc
MMC alone, dose needed to kill fraction affected (OCUM-2MD3 cells; Fa 95%): 0.100 ug/cc
MMC alone, dose needed to kill fraction affected (MKN-45-P cells; Fa 10%): 0.014 ug/cc
MMC alone, dose needed to kill fraction affected (MKN-45-P cells; Fa 20%): 0.027 ug/cc
MMC alone, dose needed to kill fraction affected (MKN-45-P cells; Fa 30%): 0.040 ug/cc
MMC alone, dose needed to kill fraction affected (MKN-45-P cells; Fa 40%): 0.056 ug/cc
MMC alone, dose needed to kill fraction affected (MKN-45-P cells; Fa 50%): 0.077 ug/cc
MMC alone, dose needed to kill fraction affected (MKN-45-P cells; Fa 60%): 0.105 ug/cc
MMC alone, dose needed to kill fraction affected (MKN-45-P cells; Fa 70%): 0.147 ug/cc
MMC alone, dose needed to kill fraction affected (MKN-45-P cells; Fa 80%): 0.222 ug/cc
MMC alone, dose needed to kill fraction affected (MKN-45-P cells; Fa 90%): 0.413 ug/cc
MMC alone, dose needed to kill fraction affected (MKN-45-P cells; Fa 95%): 0.732 ug/cc
Dose lowering when given as combination therapy (MKN-45-P cells; combination of MMC and G207): 2-9 fold
Mean peritoneal tumor burden (±SEM) [1]: 1490 (±310) mg
Increase in GADD34 band intensity vs negative control (GADD34 mRNA (OCUM cells); 24 hours): 2.49 fold
Increase in GADD34 band intensity vs negative control (GADD34 mRNA (OCUM cells); 48 hours): 3.21 fold
GADD34 band (GADD34 mRNA (OCUM cells); 24 hours): did not result in upregulation
GADD34 band (GADD34 mRNA (OCUM cells); 24 hours, listed as Mitomycin C): did not show any band
GADD34 band (GADD34 mRNA (OCUM cells); 48 hours): did not show any GADD34,band; also recorded: failed to demonstrate the presence of GADD34 mRNA
